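Step 1: Grow cells in 96-well plates. Step 2: Expose to compound for 48 hours at 5 concentrations. Step 3: Interpolate endpoints linearly; if unreached, use highest concentration. TGI denotes the concentration required for complete inhibition of growth.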
Experiments:
Assay in all cases: DTP human tumour cell line panel, 48 h
SK-MEL-5 melanoma = system: SK-MEL-5 melanoma
HT29 colon = system: HT29 colon
SK-OV-3 ovarian = system: SK-OV-3 ovarian
MDA-MB-435 = system: MDA-MB-435
SK-MEL-28 melanoma = system: SK-MEL-28 melanoma
UO-31 renal = system: UO-31 renal
TK-10 renal = system: TK-10 renal
K-562 leukemia = system: K-562 leukemia
SNB-19 CNS = system: SNB-19 CNS
UACC-62 melanoma = system: UACC-62 melanoma

Compound | TGI (SK-MEL-5 melanoma) [µM] | TGI (HT29 colon) [µM] | TGI (SK-OV-3 ovarian) [µM] | TGI (MDA-MB-435) [µM] | TGI (SK-MEL-28 melanoma) [µM] | TGI (UO-31 renal) [µM] | TGI (TK-10 renal) [µM] | TGI (K-562 leukemia) [µM] | TGI (SNB-19 CNS) [µM] | TGI (UACC-62 melanoma) [µM]
O=C(O)c1cnc(-n2[nH]c3c(c2=O)CCCC3)[nH]c1=O | > 100 | > 100 | > 100 | > 100 | > 100 | > 100 | > 100 | > 100 | > 100 | > 100
Cc1ccc(C2=C(C#N)C(N)OC3=C2COc2ccccc23)cc1 (stereo not given) | > 100 | > 100 | 67.9 | > 100 | > 100 | 33.7 | 44.4 | > 100 | 41.9 | > 100
Cc1cc(S(=O)(=O)Nc2nc3ccccc3nc2-c2ccc(Cl)cc2)c(S)cc1Cl | 27 | 31.4 | 31.1 | 34.5 | 31 | 30.1 | 63.7 | 70.6 | 37 | 25.4
CCOC(=O)C(Cc1ccc(OC(=O)OC(C)(C)C)cc1)NC(=O)OC(C)(C)C (stereo not given) | > 100 | > 100 | > 100 | > 100 | > 100 | > 100 | > 100 | > 100 | > 100 | > 100
CC(=O)Oc1c(N2CCCCC2)c(C(=O)c2ccccc2)c(O)c2ccn(N(C)C)c12 | 29.7 | 29.3 | 65.4 | 38.1 | 34.8 | 35.4 | 36.8 | > 100 | 64.3 | 30.3
COC1=CC2(CC(OC)=C1OC)OC21COc2ccccc2C1=O (stereo not given) | > 100 | > 100 | > 100 | > 100 | > 100 | > 100 | > 100 | > 100 | > 100 | > 100
OCCN(/N=C\c1ccc2ccccc2c1)C1=NCCN1 | 33.1 | 89 | > 100 | 32.7 | 35.3 | > 100 | > 100 | 30.4 | > 100 | 48.6
C=CCN(CCNS(=O)(=O)c1ccc(C)cc1)S(=O)(=O)c1ccc(C)cc1 | 12.1 | > 100 | > 100 | > 100 | > 100 | > 100 | > 100 | > 100 | > 100 | > 100
CCCCCCCCCCCCCCCCOP(=O)(O)OCC(N)C(=O)O (stereo not given) | 32.6 | > 100 | 63.8 | 39.8 | > 100 | 30.8 | 16.5 | 56.9 | 35.9 | 37
Nc1[nH]nc2nc3ccccc3nc12 | > 100 | > 100 | > 100 | > 100 | > 100 | > 100 | > 100 | > 100 | > 100 | > 100

Reference: PubChem BioAssay (NCI)
